As usually defined, the EC50 is the concentration that produces a half-maximal response. Lower therefore signals greater potency. As usually defined, the CC50 is the concentration giving 50% cytotoxicity.

Holding throughout (format): cell-based
The subject of one data set is HBV. Kind of data set: Anti-HBV activity in the AD-38 cell line using real-time quantitative PCR. How it is done:
Anti-HBV activity of prodrugs of general formula 1 determination in the AD-38 cell line using a real-time quanitative PCR. a) Cell cultures. HepG2 AD38 cell line, harboring an integrated over-the-length HBV genomic DNA (Lander S, et. al, Antimicrobal Agents and Chemotherapy, 1997, pg. 1715-1720) were provided by Dr. C. Seeger, Fox Chase Cancer Center, Philadelphia, Pa.). Cells were grown in complete media (DMEM/F12 with 2 mM L-Glutamine (Thermo Scientific, Cat #11320033), 10% Fetal Bovine Serum (ThermoFisher Scientific, Cat#), 1% Antibiotic-antimitotic solution (ThermoFisher Scientific, Cat#15240096), and 0.3 μg/ml tetracyclin (Sigma, Cat # T7660-5G). Cells were plated onto Corning Biocoat 96-well plates (Corning, Cat #356407) in 225 ul of complete media (without teracyclin), 20000 cells/well. The prodrugs of general formula 1 were dissolved first in DMSO (Sigma cat. D2650), then in DMEM/F12 and 9 serial 3× dilutions were prepared and added to cells in 22.5 μl. The final prodrugs concentrations ranged from 10 μM to 1 nM. Cells grown in the presence of tetracyclin were used as a positive control, as HBV replication in this cell line is turned off by thetracyclin. Cell plates were incubated for 4 days at 37 C, 5% CO2. b) HBV DNA isolation. After 4 days, viral DNA was isolated from culture supernatants using PureLink® Pro 96 Genomic DNA Purification Kit (ThermoFisher Scientific, Cat # K183104A), according to manufacturer's recommendations. Eluted DNA samples were stored at −20 C. c) Quantitative real-time PCR (qPCR). PCR was performed on the CFX96™ Real-Time System (Bio-Rad, Hercules, Calif.) using AmpliTaq Gold® DNA Polymerase (Applied Biosystems®).
Ct values (cycle threshold) were obtained for each prodrug sample and normalized to untreated cells, according to formula E=(1/(1+100%))̂(Ct[studied prodrug sample]−Ct[K-]), where E is a normalized expression of studied gene, Ct[K-] and Ct[studied prodrug sample] are Ct values of untreated cells and studied prodrug sample. Inhibition curves were obtained and EC50 values were calculated using the Graph Prizm software (Table 3).

The subject of a further data set is HepG2 AD38 cell line. Kind of data set: Cytotoxicity (viability, CC50) reported with the anti-HBV test. The following applies: concentration not given.
Experiment in data set [1]: as above
The following applies: human, HepG2 AD38 cells.

For the compound `C=CCOC(=O)[C@H](C)N[P@](=O)(OC[C@@H]1O[C@H](n2cc(C)c(=O)[nH]c2=O)[C@H](F)[C@H]1O)Oc1ccccc1` [1.2(67), allyl (S)-2-{(S)-[(2S,3S,4R,5S)-4-fluoro-3-hydroxy-5-(5-methyl-2,4-dioxo-3,4-dihydro-2H-pyrimidin-1-yl)-tetrahydro-furan-2-ylmethoxy]-phenoxy-phosphorylamino}-propanoate], the midpoint of the response in the data set with HBV (Hepatitis B virus, 96 h), the EC50, lay at 760 ± 110 nM. The “inhibition, %” value with HBV (against HBV, concentration not given) is 88%. Further, the “viability, %” value in the data set with HepG2 AD38 cell line is 95%. Moreover, the CC50 in data set [1] was > 30000 nM.

These data come from patent US20180030080A1, “Phosphoramidate nucleoside prodrug for treating viral diseases and cancer, processes for their preparation and their use” (ASAVI, LLC, priority 2016, published 2018).
